# Laboratory results from patent US7951806B2, “Plasminogen activator inhibitor-1 inhibitor” (Renascience Co., Ltd., priority 2007, dated 2011).
# Marks after values point to notes of the source that are not given here.
# Experiments:
# PAI-1 [1] = target: T1, PAI-1 (Homo sapiens, UniProt P05121); test: PAI-1 Inhibitory Activity Assay (Reference Test Example 1 (1)); assay type: biochemical; details: 35 μM and 50 μM; FIG. 14
# T1 construct: purchased Molecular Innovations Inc., USA (PAI-1); American Diagnostica, Inc., USA (t-PA)
# Description: The compounds a and b (test compounds) were evaluated for inhibitory action on human PAI-1 (product of Molecular Innovations Inc., USA, hereinafter referred to the same). More specifically, human PAI-1 was added to a 0.1% Tween 80-containing 100 mM Tris-HCl (pH 8) solution each containing the above compound respectively in a given concentration (20, 35, 50 and 100 μM), and incubated at 37° C. for 15 minutes. Subsequently, added thereto was human tissue plasminogen activator (t-PA) (product of American Diagnostica, Inc., USA, hereinafter referred to the same), adjusted to […], and further incubated at 37° C. for 15 minutes. Then, 1.25 mM of S-2288 synthesized substrate (product of Chromogenix, Italy, hereinafter referred to as the same), a chromogenic substrate, was added thereto. The final mixed solution contained 100 mM Tris-HCl (pH 8), 30 mM NaCl, 1% DMSO, 0.1% Tween […], 9.8 nM t-PA, 1 mM S-2288 and the test compound a or b (20, 35, 50 or 100 μM).
# Free radical p-nitroanilide removed from the chromogenic substrate (S-2288) by t-PA action was measured using a spectrophotometer at an absorbance of 405 nm, every 5 minutes, for 30 minutes. […]
# PAI-1 [2] = target: T1, PAI-1; test: Fibrinolytic Action Assay (fibrin plate, PAI-1 + t-PA + test compound); assay type: biochemical; details: mixture of PAI-1, t-PA and test compound, 18 hours at room temperature
# Description: The compounds a and b were evaluated for fibrinolytic action in accordance with the method disclosed in the document (Matsuo, O. et al., Haemostasis 16, 43-50 (1986)).
# More specifically, an aqueous solution (25 mM barbital sodium, 50 mM NaCl, and 25 mM CaCl2) containing a concentration of 1.5 mg/ml of fibrinogen (product of Organon Teknica) was added on a 9 cm-plate to thrombin (10NIH U/ml: product of Mochida Pharmaceutical Co., Ltd.) dissolved in a 0.2 ml physiological saline, and the mixture was allowed to stand for 2 hours at room temperature. Using this mixture, fibrinolysis assay was conducted.
# Namely, a mixture of PAI-1, t-PA and a test compound were dropped onto the above-mentioned plate, and incubated for 18 hours at room temperature. Fibrinolysis due to the plasminogen activation was assayed in terms of the lysed area on the plate.
# [3] = test system: bleomycin-induced pulmonary fibrosis; test: Effects on bleomycin-induced pulmonary fibrosis (mouse model); assay type: in vivo
# Description: (§1) A C57BL/6 mouse (male, body weight 19 to 21 g) was intraperitoneally anesthetized with pentobarbital, and an incision was made on the cervical organ. Ten mice were used as controls. The control mice (n=10) were endotracheally administered with bleomycin (product of Nippon Kayaku Co., Ltd.) (1.5 U/kg), lysed in physiological saline, twice a day for 14 days. On the other hand, the test mice were subjected to forcible oral administration with the compound b (200 mg/kg), suspended in a 0.5% carboxymethyl cellulose aqueous solution, twice a day for 14 days, in addition to the above endotracheal administration. Then, the lung tissues taken from these control mice and the test mice were analyzed, and further assayed for hydroxyproline levels. The hydroxyproline levels in the lung tissues were assayed in terms of the level in the hydrolysate of the lung tissues as described in the method of Kivirikko et al (Anal. Biochem. 19, 249-255 (1967)). Pulmonary fibrosis levels (severity) were scored from 0 to 8, based on the method of Ashcort et al (J. Clin. Pathol. 41, 467-470, (1988)). Further, the control mice and test mice were assayed for plasma PAI-1 activity (ng/ml). The results of lung tissue analysis were shown in FIG. 15 (a represents fibrosis score and b is a set of histological stain images).
# plasma PAI-1 = target: T2, plasma PAI-1 (Mus musculus, UniProt P22777); test: Plasma PAI-1 activity in mice with bleomycin-induced pulmonary fibrosis; assay type: in vivo
# T2 construct: from tissue; host or cells: mouse plasma (C57BL/6, male)
# T2 sequence (P22777 23-402): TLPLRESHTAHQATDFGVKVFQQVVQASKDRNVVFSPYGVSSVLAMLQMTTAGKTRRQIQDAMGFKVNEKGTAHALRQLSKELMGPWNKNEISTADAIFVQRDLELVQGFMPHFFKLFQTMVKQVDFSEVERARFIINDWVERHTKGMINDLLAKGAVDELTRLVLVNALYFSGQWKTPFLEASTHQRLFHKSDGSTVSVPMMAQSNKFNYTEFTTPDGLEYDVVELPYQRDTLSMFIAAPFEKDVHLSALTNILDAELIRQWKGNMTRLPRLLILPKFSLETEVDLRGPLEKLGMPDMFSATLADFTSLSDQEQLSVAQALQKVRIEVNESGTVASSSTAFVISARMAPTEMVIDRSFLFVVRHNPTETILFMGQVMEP
# Description: as §1
# [4] = C57BL/6 mice, bleomycin, 200 mg/kg p.o. twice/day for 14 days in 0.5% CMC, n=10, mean±SE
# [5] = versus elevation by bleomycin, 200 mg/kg p.o. twice a day
# T1 sequence (P05121 24-402): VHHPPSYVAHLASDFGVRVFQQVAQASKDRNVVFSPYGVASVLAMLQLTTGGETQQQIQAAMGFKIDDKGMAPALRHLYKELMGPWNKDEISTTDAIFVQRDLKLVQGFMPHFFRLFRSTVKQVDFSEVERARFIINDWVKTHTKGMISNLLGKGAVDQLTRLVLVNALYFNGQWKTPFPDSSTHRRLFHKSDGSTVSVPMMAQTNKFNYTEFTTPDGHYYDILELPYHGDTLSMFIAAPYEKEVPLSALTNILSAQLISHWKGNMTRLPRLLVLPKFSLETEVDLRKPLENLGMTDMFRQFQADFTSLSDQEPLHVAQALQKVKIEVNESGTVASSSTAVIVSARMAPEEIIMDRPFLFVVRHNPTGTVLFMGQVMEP
Compound,PAI-1 activity inhibitory action compared with tiplaxtinin (PAI-1 [1]),fibrinolysis (lysed area on the plate) (PAI-1 [2]),"Hydroxyproline Level in Lung Tissue [3, 4]","fibrosis score ([3]; scored from 0 to 8 (Ashcroft), bleomycin mice, 200 mg/kg p.o. twice a day for 14 days, FIG. 15)","hydroxyproline level in the lung tissues (in words) [3, 5]",Plasma PAI-1 Activity (plasma PAI-1; [4]),plasma PAI-1 activity (in words) (plasma PAI-1; [5])
"CCC(CC(=O)Nc1scc(-c2cccs2)c1C(=O)O)C(=O)Nc1scc(-c2cccs2)c1C(=O)O (stereo not drawn) [compound b, 2-[3-(3′-carboxy-4′-thienylthiophen-2′-ylcarbamoyl)-pentanoylamino]-4-thienylthiophen-3-carboxylic acid]",higher PAI-1 activity inhibitory action at concentrations of 35 μM and 50 μM than tiplaxtinin,inhibit the fibrinolysis suppression caused by PAI-1,204.2 ± 9.5^b μg/lung,2.9±0.42,significantly decreases,1.2 ± 0.1^b ng/ml,significantly decreases
"CCC(CC(=O)Nc1scc(-c2ccccc2)c1C(=O)O)C(=O)Nc1scc(-c2ccccc2)c1C(=O)O (stereo not drawn) [compound a, 2-[3-(3′-Carboxy-4′-phenylthiophen-2′-ylcarbamoyl)-pentanoylamino]-4-phenylthiophen-3-carboxylic acid]",higher PAI-1 activity inhibitory action at concentrations of 35 μM and 50 μM than tiplaxtinin,inhibit the fibrinolysis suppression caused by PAI-1,,,,,
